Data reported in patent publication US11672792B2, “Topical formulations comprising montelukast and combinations with mussel adhesive proteins” (ENLITISA (SHANGHAI) PHARMACEUTICAL CO., LTD, priority 2017, dated 2023).

How the values were obtained:
[1] = tested on: carrageenan-induced acute inflammation in subcutaneous air pouch; assay: Air Pouch Model I (Example 1); type: in vivo, C57BL/6 mice; set-up: Activity score / Edema Score / Sum (of histology scores) / Fibroplastic proliferation score / Inflammation score: scale not given here; settings: MAP 1.5 mg, Mon 200 μg
Description: Healthy adult male C57BL/6 mice weighing between 20 and 30 g were supplied by Changzhou Cvens Experimental Animal Co. Ltd (Changzhou, Jiangsu Province, China). Prior to any experiments being conducted, mice were housed under standardized conditions (at a constant temperature or 22 t 2° C., with alternating 12 hour periods of light and darkness), and were fed on a standard mouse diet with water, for about a week.
General anesthesia was induced using intraperitoneal 3% chloral hydrate (Sinopharm Chemical Reagent Co., Ltd., Shanghai, China); 1 mL/10 g of body weight). The hair of the entire dorsum was shaved and depilated 1 day before sterile air injection.
Air pouches were produced by subcutaneous injection of sterile air (5 mL) into the intrascapular area of the mice. After three days, another injection of air (3 mL) was performed to maintain the pouches. In order to induce acute inflammation, three days after this final injection, animals received an injection of sterile carrageenan solution (CP Kelco, Taixing, Jiangsu Province, China; 1%, 0.5 mL; produced by adding 0.1 g of carrageenan powder into a beaker containing 10 mL of 0.9% saline solution and stirring). Mice were pre-treated with test samples or vehicle 1 hour before and 23 hours after the carrageenan injection into the subcutaneous air pouch. Animals were sacrificed 24 hours after the carrageenan injection.
Skin biopsies were taken from the air pouches. A part of the biopsy was fixed in formalin (produced by adding ultra pure water to 50 mL of a 40% formaldehyde solution (Nanchang Rain Dew Experimental Equipment Co., Ltd., Nanchang, […] Provence, China) up to a total volume of 500 mL) and analyzed by histological embedding in paraffin wax, sectioning and staining.
The cavity was washed with 4 mL of sterile phosphate buffer solution (pH 7.4; prepared by dissolving 4 g of NaCl, 0.1 g of KCl, 1.749 g of Na2HPO4.12H2O and 0.1 g of KH2PO4 in ultrapure water, adjusting the pH to 7.4 with HCl and diluting with water to a total volume of 500 mL).
Exudates were collected and volumes were quantified. The total number of cells was determined with a haematocytometer (ADVIA 2120 Hematology System, Siemens Healthineers).
In Table 1, MAP is a Mefp-1 solution, which is was prepared as follows. Blue mussels were harvested in the coastal area of Shandong Province, China. Mussel feet were collected, cut into small pieces and homogenized in an extraction buffer comprising 5% acetic acid in 4 mol/L of aqueous urea. The crude extracts were collected after centrifuging and then purified by liquid chromatography. […] The solutions that were employed below were prepared by adding saline solution to this semi-finished product to obtain a concentration as described in Table 1.

[2] = tested on: carrageenan-induced acute inflammation in subcutaneous air pouch; assay: Air Pouch Model II (Example 2); type: in vivo, mice; set-up: Fibroplastic proliferation score / Inflammation score / Activity score / Edema Score / Sum (of histology scores): scale not given here; settings: Dopamine 2 mg, MAP 250 μg, Mon 100 μg
Description: In Table 6, “Dex” is an abbreviation for dexamethasone and “Dopamine” is a 4 mg/mL aqueous solution of dopamine hydrochloride (Shanghai Aladdin Bio-Chem Technology Co., Ltd., Shanghai, China).
The histological specimens were analysed and an inflammation score, an activity score and a fibroplastic proliferation score were estimated as in Example 1 above and are tabulated in Table 9 below.

[3] = tested on: carrageenan-induced acute inflammation in subcutaneous air pouch; assay: Air Pouch Model: Combination of Montelukast (Example 5); type: in vivo, mice; settings: MAP 1.5 mg, Mon 200 μg
[4] = tested on: carrageenan-induced acute inflammation in subcutaneous air pouch; assay: Air Pouch Model: Topical Administration Versus Oral Administration (Example 4); settings: 200 μg/mouse, Mon-O intragastric
[5] = doses/mouse: dexamethasone 200 μg
[6] = doses/mouse: dexamethasone 200 μg, 24 h after carrageenan
[7] = pouch wall histology, dexamethasone 200 μg

## C[C@@H]1C[C@H]2[C@@H]3CCC4=CC(=O)C=C[C@]4(C)[C@@]3(F)[C@@H](O)C[C@]2(C)[C@@]1(O)C(=O)CO [Dexamethasone, dexamethasone]
[1]; dexamethasone 200 μg
  IFN-γ in exudate (ELISA): 2879 ± 1267
  IL-6 in exudate (ELISA): 3649 ± 1764
  IL-10 in exudate (ELISA): 52.33 ± 11.60
  TNF-α in exudate (ELISA): 71.31 ± 111.19
[1]; [5]
  Leukocyte count in exudate: 2.48e+08 mL⁻¹
  Lymphocyte count in exudate: 2.08e+08 mL⁻¹
  Monocyte count in exudate: 5e+06 mL⁻¹
  Neutrophil count in exudate: 2.2e+07 mL⁻¹
[1]; [6]
  Exudate volume: 3.60 ± 0.14 mL
  Pouch Wall Weight: 0.72 ± 0.09 g
[1]; [7]
  Activity score: 0.83
  Edema Score: 1.67
  Fibroplastic proliferation score: 0.00
  Inflammation score: 1.50
  Sum (of histology scores): 4.00
[2]; Dex 400 μg
  Activity score: 0.33
  Edema Score: 0.83
  Fibroplastic proliferation score: 0.00
  IFN-γ in exudate (ELISA): 238.91 ± 272.27
  IL-6 in exudate (ELISA): 3697.30 ± 5112.52
  Inflammation score: 0.83
  Leukocyte count in exudate: 880000 mL⁻¹
  Lymphocyte count in exudate: 30000 mL⁻¹
  Monocyte count in exudate: 670000 mL⁻¹
  Neutrophil count in exudate: 130000 mL⁻¹
  Sum (of histology scores): 2.00
[2]; doses/mouse: Dex 400 μg
  Exudate volume: 2.87 ± 0.06 mL
  Pouch Wall Weight: 0.45 ± 0.01 g
[3]; dexamethasone 200 μg
  Activity score: 0.83
  Edema Score: 1.67
  Fibroblast proliferation score: 0.00
  IFN-γ in exudate (ELISA): 2879 ± 1267
  IL-6 in exudate (ELISA): 3649 ± 1764
  IL-10 in exudate (ELISA): 52.33 ± 11.60
  Inflammation score: 1.50
  Leukocyte count in exudate: 2.48e+06 mL⁻¹
  Lymphocyte count in exudate: 2.08e+06 mL⁻¹
  Monocyte count in exudate: 50000 mL⁻¹
  Neutrophil count in exudate: 220000 mL⁻¹
  Sum (of histology scores): 4.00
  TNF-α in exudate (ELISA): 71.31 ± 111.19
[3]; [5]
  Exudate volume: 3.60 ± 0.14 mL
  Pouch Wall Weight: 0.72 ± 0.09 g
[4]; others injected into pouch
  Exudate volume: 3.3 ± 0.15 mL
  Pouch Wall Weight: 0.63 ± 0.09 g
[4]; others into pouch
  Activity score: 0.67
  Edema Score: 1.67
  IFN-γ in exudate (ELISA): 388.83 ± 130.02
  IL-6 in exudate (ELISA): 428.05 ± 267.27
  Inflammation score: 1.83
  Leukocyte count in exudate: 3.49e+06 mL⁻¹
  Sum (of histology scores): 4.17
  TNF-α in exudate (ELISA): 65.08 ± 7.70
